This passage reports serum concentration and greatest serum concentration results from article PMC3609710 (Journal of chromatography. A, 2012).

The format of the data set is in vivo, mouse (C57Bl/6). As to conditions: mouse serum, single IP injection of T1AM 25 mg/kg.

Read-outs that look alike come from different tables or passages of the source.

Consider `O=C(O)Cc1ccc(Oc2ccc(O)cc2)c(I)c1` [TA1, 3-iodothyroacetic acid], for which the serum concentration is, setting by setting: (10 minutes post-injection) 17.7 ± 4.6 µM; (20 minutes post-injection) 23.5 ± 13.2 µM.
Take `O=C(O)Cc1ccc(Oc2ccc(O)cc2)cc1` [TA0, thyroacetic acid]: the greatest serum concentration (at 6 hours post-injection) was 0.77 ± 0.16 µM.
Consider `NCCc1ccc(Oc2ccc(O)cc2)c(I)c1` [T1AM, 3-Iodothyronamine], for which the serum concentration was 16.6 ± 8.5 µM (10 minutes post-injection) and 5.6 ± 3.1 µM (20 minutes post-injection).
